10 molecules from ChEMBL document CHEMBL1201862, “PubChem BioAssay data set” (2004) can be followed below.

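48-hour exposure; five concentrations; linearly interpolated endpoints. GI50 is the concentration that inhibits growth by half.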 Active and inactive are the calls of the source. No stated cut-off is given here; in the data, active = GI50 up to about 1.1 µM and inactive = higher. Where only a bound is given, the exact number is not on record here.

Test systems include 786-0; A498; A549; CAKI-1; COLO 205; HL-60; K562; MDA-MB-231; NCI-H226; NCI-H460; NCI-H522; NCI/ADR-RES; OVCAR-3; OVCAR-5; OVCAR-8; SK-MEL-28; SNB-19; SR; TK-10; U-251.
Holding throughout (experiment): NCI-60 cell line screen, 48 h

Take `CSc1ncnc2c1ncn2CC(=O)C1CCC2C3CCC4=CC(=O)CCC4(C)C3CCC12C` (stereo not given): the GI50 is 11 µM (inactive) in the test on 786-0; 5.13 µM (inactive) with A498; 6.81 µM (inactive) in the test on A549; 10 µM (inactive) with CAKI-1; 3.41 µM (inactive) in the test on COLO 205; 0.28 µM (active) in the test on HL-60. Further, the GI50 with K562 was 3.47 µM (inactive); in the test on MDA-MB-231, 6.64 µM (inactive); in the test on NCI-H226, 5.85 µM (inactive); in the test with NCI-H460, 4.35 µM (inactive); in the test on NCI-H522, 3.61 µM (inactive); with NCI/ADR-RES, 2.5 µM (inactive). Also, the GI50 is 4.25 µM (inactive) in the test on OVCAR-3; 23.9 µM (inactive) with OVCAR-5; 3.53 µM (inactive) with OVCAR-8; 5.47 µM (inactive) in the test on SK-MEL-28; 19.2 µM (inactive) in the test with SNB-19; 2.16 µM (inactive) in the test on SR. Also, the GI50 with TK-10 was 4.46 µM (inactive); with U-251, 7.62 µM (inactive).

Regarding `COC(=O)C(Cc1ccccc1)NC(=O)C(CCC(=O)OCc1ccccc1)NC(=O)OC(C)(C)C` (stereo not given), the GI50 in the test on 786-0 was > 100 µM (inactive); in the test on A498, > 100 µM (inactive); in the test with A549, > 100 µM (inactive); in the test on CAKI-1, > 100 µM (inactive); in the test on COLO 205, > 100 µM (inactive); in the test on HL-60, 54.8 µM (inactive). Further, the GI50 was 26.9 µM (inactive) in the test on K562; 48.1 µM (inactive) in the test with MDA-MB-231; 57.4 µM (inactive) with NCI-H226; 30.5 µM (inactive) with NCI-H460; 30.4 µM (inactive) in the test with NCI-H522; > 100 µM (inactive) with NCI/ADR-RES. Also, the GI50 in the test with OVCAR-3 is 50.2 µM (inactive); in the test on OVCAR-5, > 100 µM (inactive); with OVCAR-8, > 100 µM (inactive); in the test on SK-MEL-28, > 100 µM (inactive); in the test on SNB-19, > 100 µM (inactive); with SR it was 27.2 µM (inactive). The GI50 in the test with TK-10 and with U-251 was > 100 µM (inactive) throughout.

Turning to `Cc1ccc2c(c1)C(=O)C(C1OC(=O)c3ccccc31)C2` (stereo not given), the GI50 was > 100 µM (inactive) in the test with 786-0; > 100 µM (inactive) in the test on A498; > 100 µM (inactive) in the test on A549; > 100 µM (inactive) with CAKI-1; 56.2 µM (inactive) in the test on COLO 205; 64.7 µM (inactive) in the test with HL-60. The GI50 was 97.3 µM (inactive) in the test on K562; > 100 µM (inactive) in the test on MDA-MB-231; 30.5 µM (inactive) in the test on NCI-H226; > 100 µM (inactive) with NCI-H460; 83.4 µM (inactive) in the test with NCI-H522; 33.7 µM (inactive) in the test with NCI/ADR-RES. The GI50 in the test on OVCAR-3 was 91 µM (inactive); with OVCAR-5 it was > 100 µM (inactive); in the test on OVCAR-8 it was > 100 µM (inactive); with SK-MEL-28 it was > 100 µM (inactive); in the test on SNB-19, 87.3 µM (inactive); in the test with SR it was 74.5 µM (inactive). Besides, the GI50 in the test with TK-10 was 38.5 µM (inactive); in the test with U-251, 61 µM (inactive).

With `CN(CC(=O)O)c1ncc2c(n1)-c1ccccc1CC2`, the GI50 in the test on 786-0, in the test on A498, in the test on A549, with CAKI-1, in the test with COLO 205 and in the test with HL-60 was > 100 µM (inactive) each time. The GI50 in the test on K562, in the test on MDA-MB-231, with NCI-H226, in the test with NCI-H460, in the test with NCI-H522 and in the test on NCI/ADR-RES was > 100 µM (inactive) in each case. Besides, the GI50 in the test with OVCAR-3, in the test on OVCAR-5, with OVCAR-8, in the test on SK-MEL-28, in the test on SNB-19 and in the test on SR was > 100 µM (inactive) throughout. Moreover, the GI50 with TK-10 and with U-251 was > 100 µM (inactive) each time.

Regarding `CC(=O)OCC1OC(n2nc(Cc3ccccc3)c(=S)[nH]c2=S)C(OC(C)=O)C(OC(C)=O)C1OC(C)=O` (stereo not given), the GI50 is 35.2 µM (inactive) in the test with 786-0; 32.1 µM (inactive) in the test on A498; 84.1 µM (inactive) in the test with A549; 30.7 µM (inactive) in the test with CAKI-1; 89.7 µM (inactive) in the test with COLO 205; 0.583 µM (active) with HL-60. The GI50 in the test on K562 was 26.9 µM (inactive); in the test with MDA-MB-231, 14.7 µM (inactive); in the test with NCI-H226 it was 54.1 µM (inactive); with NCI-H460, 69 µM (inactive); with NCI-H522, 21.4 µM (inactive); in the test on NCI/ADR-RES, > 100 µM (inactive). Moreover, the GI50 with OVCAR-3 is 18.7 µM (inactive); in the test on OVCAR-5, > 100 µM (inactive); with OVCAR-8, 23.6 µM (inactive); in the test with SK-MEL-28 it was 42.8 µM (inactive); with SNB-19, 27.7 µM (inactive); with SR it was 31.2 µM (inactive). The GI50 in the test on TK-10 was 57.8 µM (inactive); in the test with U-251, 22.1 µM (inactive).

For `COc1cc(C(=O)NC(CCN)(c2ccccc2)c2ccccc2)cc(OC)c1OC`, the GI50 was 22.9 µM (inactive) with 786-0; 12.6 µM (inactive) in the test on A498; 21.3 µM (inactive) in the test with A549; 35.4 µM (inactive) in the test with CAKI-1; 14.1 µM (inactive) in the test on COLO 205; 12.2 µM (inactive) with HL-60. In addition, the GI50 is 12.9 µM (inactive) with K562; 16.9 µM (inactive) with MDA-MB-231; 30.8 µM (inactive) with NCI-H226; 19.2 µM (inactive) in the test on NCI-H460; 16.6 µM (inactive) in the test on NCI-H522; 42.7 µM (inactive) with NCI/ADR-RES. In addition, the GI50 is 56.8 µM (inactive) with OVCAR-3; > 87.5 µM (inactive) in the test with OVCAR-5; > 31.6 µM (inactive) in the test on OVCAR-8; 13.8 µM (inactive) in the test on SK-MEL-28; > 58.5 µM (inactive) with SNB-19; 15.6 µM (inactive) in the test with SR. For the same molecule, the GI50 in the test with TK-10 is 28.8 µM (inactive); in the test with U-251, 53.2 µM (inactive).

With `COc1cccc2cc(C(=O)Nc3ccccn3)c(=N)oc12`, the GI50 is 95.1 µM (inactive) with 786-0; > 100 µM (inactive) in the test on A498; > 100 µM (inactive) in the test with A549; > 100 µM (inactive) with CAKI-1; > 100 µM (inactive) in the test with COLO 205; 21.6 µM (inactive) with HL-60. The GI50 in the test on K562 is 39.4 µM (inactive); in the test with MDA-MB-231, 63 µM (inactive); with NCI-H226, > 100 µM (inactive); in the test with NCI-H460, > 100 µM (inactive); in the test on NCI-H522, 46.5 µM (inactive); in the test on NCI/ADR-RES it was > 100 µM (inactive). Further, the GI50 in the test with OVCAR-3 was 23.7 µM (inactive); with OVCAR-5, > 100 µM (inactive); in the test with OVCAR-8, > 100 µM (inactive); in the test on SK-MEL-28 it was > 100 µM (inactive); with SNB-19, > 100 µM (inactive); with SR, 2.43 µM (inactive). The GI50 in the test on TK-10 and in the test on U-251 was > 100 µM (inactive) each time.

As to `CC(OCc1ccccc1)C(NC(=O)C1CSSCC(NC(=O)C(Cc2ccccc2)NC(=O)OCc2ccccc2)C(=O)NC(Cc2ccccc2)C(=O)NC(Cc2cn(C=O)c3ccccc23)C(=O)NC(CCCCNC(=O)OCc2ccccc2)C(=O)NC(C(C)OCc2ccccc2)C(=O)N1)C(N)=O` (stereo not given), the GI50 is 24.9 µM (inactive) in the test on 786-0; 27.3 µM (inactive) with A498; > 79.3 µM (inactive) with A549; 46 µM (inactive) in the test on CAKI-1; 3.03 µM (inactive) in the test with COLO 205; 0.977 µM (active) in the test on HL-60. For the same molecule, the GI50 is 16.4 µM (inactive) in the test with K562; 12.6 µM (inactive) in the test on MDA-MB-231; > 75 µM (inactive) in the test with NCI-H226; 22.5 µM (inactive) in the test with NCI-H460; 17.4 µM (inactive) in the test with NCI-H522; > 100 µM (inactive) in the test with NCI/ADR-RES. Also, the GI50 was 14 µM (inactive) in the test with OVCAR-3; 45 µM (inactive) in the test with OVCAR-5; 75.2 µM (inactive) in the test on OVCAR-8; 27.9 µM (inactive) in the test on SK-MEL-28; 36.7 µM (inactive) in the test with SNB-19; 34 µM (inactive) in the test with SR. Further, the figures for the GI50 in the test with TK-10 and in the test on U-251 were 33.7 µM (inactive) and 25.1 µM (inactive), respectively.

Regarding `CSCCCNC(=O)c1csc(-c2csc(CCNC(=O)CNC(=O)CNC(=O)OC(C)(C)C)n2)n1`, the GI50 in the test with 786-0, with A498, in the test on A549, in the test on CAKI-1, with COLO 205 and with HL-60 was > 100 µM (inactive) throughout. Moreover, the GI50 in the test on K562, in the test on MDA-MB-231, with NCI-H226, with NCI-H460, with NCI-H522 and in the test on NCI/ADR-RES was > 100 µM (inactive) each time. In addition, the GI50 in the test on OVCAR-3, in the test on OVCAR-5, in the test with OVCAR-8, in the test with SK-MEL-28, with SNB-19 and with SR was > 100 µM (inactive) in each case. In addition, the GI50 with TK-10 and in the test with U-251 was > 100 µM (inactive) in each case.

With `O=c1c2cc(Cl)ccc2n2nnc3ccc(NCCNCCO)c1c32`, the GI50 in the test with 786-0 was 0.741 µM (active); in the test on A498, 1.44 µM (inactive); with A549 it was 0.719 µM (active); in the test on CAKI-1, 1.83 µM (inactive); in the test on COLO 205, 0.977 µM (active); in the test on HL-60 it was 1.78 µM (inactive). For the same molecule, the GI50 with K562 was 0.589 µM (active); in the test with MDA-MB-231, 1.47 µM (inactive); in the test on NCI-H226 it was 2.11 µM (inactive); in the test on NCI-H460 it was 0.378 µM (active); with NCI-H522, 1.33 µM (inactive); in the test on NCI/ADR-RES it was 0.665 µM (active). In addition, the GI50 in the test on OVCAR-3 is 1.59 µM (inactive); with OVCAR-5, 1.64 µM (inactive); in the test on OVCAR-8 it was 0.614 µM (active); in the test with SK-MEL-28 it was 1.79 µM (inactive); in the test on SNB-19 it was 1.5 µM (inactive); in the test with SR, 0.641 µM (active). The GI50 in the test on TK-10 is 2.4 µM (inactive); with U-251, 0.853 µM (active).
